Assay [1] has as its target T1, CVB3 3C^pro (Coxsackievirus B3, UniProt Q5UEA2). Description: FRET peptide cleavage assay. The format is biochemical.
The target in another assay is HCoV-NL63 M^pro (Human coronavirus NL63, UniProt P0C6X5). Description: FRET peptide cleavage assay. Format: biochemical.
The target in the next assay is EV-A71 3C^pro (Human enterovirus 71 (strain BRCR), UniProt Q66478). Particulars: read-out: EV-A71 3Cpro; inhibitor.
The target in assay [2] is T1, CVB3 3C^pro. Description: biochemical.
Another assay deals with EV-A71. Description: microbe, parasite or virus in culture. To be noted: Enterovirus A, EVA71, read-out: EV-A71 replicon *. The arrangement: species or system Huh-T7.
The test system of the next assay is CVB3 (Nancy). Description: microbe, parasite or virus in culture. The arrangement: species or system Huh-T7. Particulars: Enterovirus B, CVB3, read-out: CVB3 replicon *. In general terms: A replicon is a self-replicating genome or part of one, used to study replication in cells.

SMILES strings stand for the structures.

Chain of EV-A71 3C^pro (Q66478 1549-1731): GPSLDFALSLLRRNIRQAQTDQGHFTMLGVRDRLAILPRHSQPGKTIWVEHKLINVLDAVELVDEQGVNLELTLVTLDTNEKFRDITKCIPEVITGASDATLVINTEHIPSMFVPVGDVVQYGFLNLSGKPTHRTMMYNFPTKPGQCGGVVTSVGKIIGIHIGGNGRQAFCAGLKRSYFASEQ
Chain of HCoV-NL63 M^pro (P0C6X5 2940-3242): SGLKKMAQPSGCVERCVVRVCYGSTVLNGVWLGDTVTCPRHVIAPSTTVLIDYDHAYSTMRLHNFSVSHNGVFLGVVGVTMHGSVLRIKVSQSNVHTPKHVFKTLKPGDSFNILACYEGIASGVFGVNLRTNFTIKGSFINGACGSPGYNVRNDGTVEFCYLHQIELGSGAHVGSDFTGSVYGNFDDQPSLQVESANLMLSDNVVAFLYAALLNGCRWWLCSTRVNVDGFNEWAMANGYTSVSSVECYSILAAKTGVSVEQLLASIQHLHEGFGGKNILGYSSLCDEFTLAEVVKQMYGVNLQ

With `O=C(/C=C/c1ccccc1)N[C@@H](Cc1ccccc1)C(=O)N[C@@H](C[C@@H]1CCNC1=O)C(=O)C(=O)NCc1ccccc1` [11a, (S)-N-benzyl-3-((S)-2-cinnamamido-3-phenylpropanamido)-2-oxo-4-((S)-2-oxopyrrolidin-3-yl)butanamide], the IC50 on CVB3 3C^pro [1] is 6.56 ± 3.1 µM; at HCoV-NL63 M^pro, > 50 µM.

In the case of `CCCCNC(=O)C(=O)[C@H](C[C@@H]1CCNC1=O)NC(=O)[C@H](Cc1ccccc1)NC(=O)/C=C/c1ccccc1` [11b], the IC50 on EV-A71 3C^pro was 2.38 ± 0.58 µM; against CVB3 3C^pro [2], 1 ± 0.35 µM.

`CC(C)(C)NC(=O)C(=O)[C@H](C[C@@H]1CCNC1=O)NC(=O)[C@H](Cc1ccccc1)NC(=O)/C=C/c1ccccc1` [11c]: the figures for the IC50 on EV-A71 3C^pro and against CVB3 3C^pro [2] were 19 ± 5.79 µM and 9.86 ± 2.68 µM, respectively.

As for `CC(C)CNC(=O)C(=O)[C@H](C[C@@H]1CCNC1=O)NC(=O)[C@H](CC(C)C)NC(=O)/C=C/c1ccccc1` [11d], the IC50 at EV-A71 3C^pro amounted to 17.7 ± 8.78 µM; against CVB3 3C^pro [2] it was 6.5 ± 0.58 µM.

As to `COC(=O)CNC(=O)C(=O)[C@H](C[C@@H]1CCNC1=O)NC(=O)[C@H](Cc1ccccc1)NC(=O)/C=C/c1ccccc1` [11e], the IC50 on EV-A71 3C^pro was found to be 11.1 ± 2.64 µM; against CVB3 3C^pro [2], 9.91 ± 1.84 µM.

For `CC(C)(C)OC(=O)N[C@@H](C[C@@H]1CCNC1=O)C(=O)C(=O)NCc1ccccc1` [11f, tert-Butyl ((S)-4-(benzylamino)-3,4-dioxo-1-((S)-2-oxopyrrolidin-3-yl)butan-2-yl)carbamate], the IC50 against CVB3 3C^pro [1] and on HCoV-NL63 M^pro was > 50 µM throughout.

Turning to `O=C(CCc1ccccc1)N[C@@H](Cc1ccccc1)C(=O)N[C@@H](C[C@@H]1CCNC1=O)C(=O)C(=O)NCc1ccccc1` [11g], the results for the IC50 at EV-A71 3C^pro and at CVB3 3C^pro [2] were 4.57 ± 1.04 µM and 3.5 ± 1.06 µM, respectively.

`O=C(NCc1ccccc1)C(=O)[C@H](C[C@@H]1CCNC1=O)NC(=O)[C@H](Cc1ccccc1)NC(=O)c1ccc2c(c1)OCCO2` [11h]: the results for the IC50 at EV-A71 3C^pro and against CVB3 3C^pro [2] were 4.75 ± 2.73 µM and 3.66 ± 0.79 µM, respectively.

`O=C(NCc1ccccc1)C(=O)[C@H](C[C@@H]1CCNC1=O)NC(=O)[C@H](Cc1ccccc1)NC(=O)c1cccc2c1OCCO2` [11i]: the IC50 at EV-A71 3C^pro is 9.74 ± 3.88 µM; at CVB3 3C^pro [2], 4.82 ± 1.17 µM.

With `O=C(NCc1ccccc1)C(=O)[C@H](C[C@@H]1CCNC1=O)NC(=O)[C@H](Cc1ccccc1)NC(=O)c1cc2ccccc2o1` [11j], the values for the IC50 at EV-A71 3C^pro and against CVB3 3C^pro [2] were 11.3 ± 6.52 µM and 9.19 ± 2.99 µM, respectively.

Regarding `O=C(NCc1ccccc1)C(=O)[C@H](C[C@@H]1CCNC1=O)NC(=O)[C@H](Cc1ccccc1)NC(=O)c1cc2ccccc2s1` [11k], the IC50 on EV-A71 3C^pro is > 50 µM; against CVB3 3C^pro [2], 18.6 ± 0.58 µM.

For the molecule `O=C(NCc1ccccc1)C(=O)[C@H](C[C@@H]1CCNC1=O)NC(=O)[C@H](Cc1ccccc1)NC(=O)c1cn2cc(Br)ccc2n1` [11l], the IC50 is > 50 µM on EV-A71 3C^pro and 30.8 ± 12.9 µM on CVB3 3C^pro [2].

Turning to `O=C(/C=C/c1ccccc1)N[C@@H](Cc1ccc(F)cc1)C(=O)N[C@@H](C[C@@H]1CCNC1=O)C(=O)C(=O)NCc1ccccc1` [11m, (S)-N-benzyl-3-((S)-2-cinnamamido-3-(4-fluorophenyl)propanamido)-2-oxo-4-((S)-2-oxopyrrolidin-3-yl)butanamide], the IC50 is 8.69 ± 1.28 µM on CVB3 3C^pro [1] and > 50 µM on HCoV-NL63 M^pro.

For the molecule `CC(C)C[C@H](NC(=O)/C=C/c1ccccc1)C(=O)N[C@@H](C[C@@H]1CCNC1=O)C(=O)C(=O)NCc1ccccc1` [11n, (S)-N-((S)-4-(benzylamino)-3,4-dioxo-1-((S)-2-oxopyrrolidin-3-yl)butan-2-yl)-2-cinnamamido-4-methylpentanamide], the IC50 against CVB3 3C^pro [1] was 3.82 ± 1.21 µM; against HCoV-NL63 M^pro it was 1.08 ± 0.09 µM.

Regarding `CCCC[C@H](NC(=O)/C=C/c1ccccc1)C(=O)N[C@@H](C[C@@H]1CCNC1=O)C(=O)C(=O)NCc1ccccc1` [11o, (S)-N-((S)-4-(benzylamino)-3,4-dioxo-1-((S)-2-oxopyrrolidin-3-yl)butan-2-yl)-2-cinnamamidohexanamide], the IC50 on CVB3 3C^pro [1] is 5.2 ± 0.28 µM; on HCoV-NL63 M^pro, > 50 µM.

Take `C#CC[C@H](NC(=O)/C=C/c1ccccc1)C(=O)N[C@@H](C[C@@H]1CCNC1=O)C(=O)C(=O)NCc1ccccc1` [11p, (S)-N-((S)-4-(benzylamino)-3,4-dioxo-1-((S)-2-oxopyrrolidin-3-yl)butan-2-yl)-2-cinnamamidopent-4-ynamide]: the IC50 at CVB3 3C^pro [1] was 8.93 ± 2.39 µM; on HCoV-NL63 M^pro it was 17.4 ± 3.97 µM.

As to `O=C(/C=C/c1ccccc1)N[C@H](C(=O)N[C@@H](C[C@@H]1CCNC1=O)C(=O)C(=O)NCc1ccccc1)C1CC1` [11q, (S)-N-benzyl-3-((S)-2-cinnamamido-2-cyclopropylacetamido)-2-oxo-4-((S)-2-oxopyrrolidin-3-yl)butanamide], the IC50 on CVB3 3C^pro [1] was 15.4 ± 4.12 µM; at HCoV-NL63 M^pro it was 11.5 ± 5.05 µM.

Turning to `O=C(/C=C/c1ccccc1)N[C@@H](CC1CCCCC1)C(=O)N[C@@H](C[C@@H]1CCNC1=O)C(=O)C(=O)NCc1ccccc1` [11r, (S)-N-benzyl-3-((S)-2-cinnamamido-3-cyclohexylpropanamido)-2-oxo-4-((S)-2-oxopyrrolidin-3-yl)butanamide], the IC50 on CVB3 3C^pro [1] is 0.95 ± 0.15 µM; against HCoV-NL63 M^pro, 12.3 ± 3.56 µM. Moreover, the EC50 in the assay with EV-A71 was 0.85 µM; in the assay with CVB3 (Nancy), 0.45 µM.

In the case of `O=C(/C=C/c1ccccc1)N[C@@H](CC1CC1)C(=O)N[C@@H](C[C@@H]1CCNC1=O)C(=O)C(=O)NCc1ccccc1` [11s, (S)-N-benzyl-3-((S)-2-cinnamamido-3-cyclopropylpropanamido)-2-oxo-4-((S)-2-oxopyrrolidin-3-yl)butanamide], the IC50 turned out to be 4.25 ± 1.4 µM against CVB3 3C^pro [1] and 1.37 ± 0.35 µM at HCoV-NL63 M^pro.

`O=C(/C=C/c1ccccc1)N[C@@H](CC1CCC1)C(=O)N[C@@H](C[C@@H]1CCNC1=O)C(=O)C(=O)NCc1ccccc1` [11t, (S)-N-benzyl-3-((S)-2-cinnamamido-3-cyclobutylpropanamido)-2-oxo-4-((S)-2-oxopyrrolidin-3-yl)butanamide]: the IC50 against CVB3 3C^pro [1] worked out at 4.78 ± 1.13 µM; against HCoV-NL63 M^pro, 3.43 ± 2.45 µM. Further, the EC50 with CVB3 (Nancy) was 2.2 µM.

Take `O=C(/C=C/c1ccccc1)N[C@@H](CC1CCCC1)C(=O)N[C@@H](C[C@@H]1CCNC1=O)C(=O)C(=O)NCc1ccccc1` [11u, (S)-N-benzyl-3-((S)-2-cinnamamido-3-cyclopentylpropanamido)-2-oxo-4-((S)-2-oxopyrrolidin-3-yl)butanamide]: the IC50 on CVB3 3C^pro [1] worked out at 1.93 ± 0.43 µM; on HCoV-NL63 M^pro it was 5.41 ± 2.31 µM. The EC50 with EV-A71 worked out at 3.65 µM; with CVB3 (Nancy), 4.9 µM.
